Test results reported in patent US6894061B2, “Substituted dihydrophenanthridinesulfonamides” (Wyeth, priority 2002, dated 2005).
Where two headings read alike, the source gives them in different places.

Key:
[1] = tested on: IL-6; assay: IL-6 test procedure (IL-6 ELISA of media) in Ad5-wt-ERα infected HAECT-1 cells; assay type: cell-based, human; conditions: for Emax: read-out: Interleukin-6 Efficacy (%); for IC50: read-out: Interleukin-6 IC50
Protocol: (§1) After four hours, cells were washed with EBM-BSA and incubated overnight in the same medium. Following overnight incubation, cells were washed with EBM-BSA and infected for 2 hours with 6 mL of a 1:10 dilution of Ad5-3x(NFκB).Luc virus (Adenovirus luciferase expression vector driven by 3 repeats of the MHC NFκb site 5′ to the thymidine kinase promoter) in EBM-BSA. After two hours, cells were washed and incubated at 34° C. for 1 hour. […] Control (no ER infection) cells were processed as above without Ad5-wt-hERα virus infection.
(§2) ERα infected HAECT-1 cells or control cells were thawed, diluted 42× in warm EBM-BSA, plated into 96-well plates at 0.1 mL/well and incubated for 4 hours at 34° C. Test compounds were added to the cells as 2× stocks in EBM-BSA containing 2 ng/mL IL-1β (R&D Systems) and the 96-well plates were returned to the incubator (34° C.). After 15-20 hours, 100 μL aliquots of media were removed from the cells and assayed for IL-6 content using a BioSource human IL-6 ELISA Kit. Cells were subsequently washed with 300 μL of Dulbecco's phosphate buffered saline and lysed in 50 μL of Cell Culture Lysis Reagent (Promega). Luciferase was determined on a Wallac Victor^2 Luminometer (Gaithersburg, Md.) using 10 μL of lysate and mixing with 100 μL of Promega Luciferase Assay reagent. Creatine kinase was determined from the rate of increase in A340 following addition of 100 μL of CK assay reagent (Sigma, cat. No 47-10) to the remainder of the cell lysate.
(§3) For IC50 and EC50 calculations, mean IL-6, luciferase or CK values versus log10 of the compound concentration were fitted to a four parameter logistic equation. The IC50/EC50 value, ‘Hill slope’, upper and lower limits of the curve were iteratively estimated.

[2] = tested on: creatine kinase; assay: Creatine kinase (CK) test procedure in Ad5-wt-ERα infected HAECT-1 cells; assay type: cell-based, human; conditions: Ad5-wt-ERα infected HAECT-1 cells; for EC50 / Emax / Emax at 10 µM: Homo sapiens, HAECT1; for EC50: read-out: Creatin Kinase EC50; for Emax / Emax at 10 µM: read-out: Creatin Kinase Efficacy (%)
Protocol: as §1, §2, §3

[3] = tested on: ER/NF-κB; assay: ER/NF-κB luciferase reporter in Ad5-wt-ERα infected HAECT-1 cells; assay type: cell-based, human; conditions: Homo sapiens, HAECT1, IL-1β; for IC50: read-out: ER/NFκB IC50; for Emax: read-out: ER/NFκB Efficacy (%)*
Protocol: as §1, §2, §3

Row | IC50 [3] [nM] | melting point [°C] | SMILES | Emax at 10 µM [2] [%] | Emax [3] [%] | further results
1 | – | – | C[C@@H]1c2ccccc2-c2ccc(F)cc2N1S(=O)(=O)c1cccc(O)c1 [Example 107, 3-{[(6R)-3-Fluoro-6-methylphenanthridin-5(6H)-yl]sulfonyl}phenol] | – | – | Emax ([1]; Homo sapiens, HAECT1, IL-1β): 79%; IC50 ([1]; Homo sapiens, HAECT1, IL-1β): 1330 nM; EC50 [2]: 110 nM; Emax [2]: 20%
2 | – | – | C[C@H]1c2ccccc2-c2ccc(Cl)cc2N1S(=O)(=O)c1cccc(O)c1 [Example 120, 3-{[(6S)-3-Chloro-6-mthylphenanthridin-5(6H)-yl]sulfonyl}ph nol] | – | – | Interleukin-6 Efficacy (%) ([1]; IL-1β): 153%; IC50 ([1]; IL-1β): 6 nM; Creatin Kinase Efficacy (%) [2]: 10%
3 | – | – | C[C@H]1c2cc(F)ccc2-c2ccc(F)cc2N1S(=O)(=O)c1ccc(O)cc1O (single isomer, unassigned) [Example 103] | – | – | Emax ([1]; Homo sapiens, HAECT1, IL-1β): 141%; IC50 ([1]; Homo sapiens, HAECT1, IL-1β): 47 nM; EC50 [2]: 85 nM; Emax [2]: 9%
4 | – | – | C[C@H]1c2ccccc2-c2ccc(F)cc2N1S(=O)(=O)c1cccc(O)c1 [Example 108, 3-{[(6S)-3-Fluoro-6-methylphenanthridin-5(6H)-yl]sulfonyl}phenol] | – | – | Emax ([1]; Homo sapiens, HAECT1, IL-1β): 92%; IC50 ([1]; Homo sapiens, HAECT1, IL-1β): 43 nM; EC50 [2]: 152 nM; Emax [2]: 11%
5 | – | – | C[C@H]1c2cc(F)ccc2-c2ccc(F)cc2N1S(=O)(=O)c1cccc(O)c1 (single isomer, unassigned) [Example 102] | – | – | Emax ([1]; Homo sapiens, HAECT1, IL-1β): 156%; IC50 ([1]; Homo sapiens, HAECT1, IL-1β): 5.4 nM
6 | > 10000 | 203 to 206 | CC1c2ccccc2-c2cc(Br)ccc2N1S(=O)(=O)c1ccc(O)c(F)c1 (stereo not shown) [Example 57, 4-[(2-Bromo-6-methylphenanthridin-5(6H)-yl)sulfonyl]-2-fluorophenol] | < 35 | – | –
7 | – | – | C[C@H]1c2ccccc2-c2ccc(Cl)cc2N1S(=O)(=O)c1ccc(O)cc1O [Example 125, 4-{[(6S)-3-Chlro-6-methylphenanthridin-5(6H)-yl]sulfonyl}b nzne-1,3-diol] | – | – | Interleukin-6 Efficacy (%) ([1]; IL-1β): 94%; IC50 ([1]; IL-1β): 54 nM; Creatin Kinase Efficacy (%) [2]: 22%
8 | > 10000 | 163 to 165 | CC1c2ccccc2-c2ccccc2N1S(=O)(=O)c1ccc(O)c(O)c1 (stereo not shown) [Example 23, 4-[(6-Methylphenanthridin-5(6H)-yl)sulfonyl]benzene-1,2-diol] | < 35 | – | –
9 | – | – | C[C@@H]1c2cc(F)ccc2-c2ccc(F)cc2N1S(=O)(=O)c1cccc(O)c1 (single isomer, unassigned) [Example 101] | – | – | Emax ([1]; Homo sapiens, HAECT1, IL-1β): 74%; IC50 ([1]; Homo sapiens, HAECT1, IL-1β): 1280 nM
10 | > 10000 | 237 to 239 | O=S(=O)(c1ccc(O)c(Br)c1)N1c2ccc(Br)cc2-c2ccccc2C1c1ccccc1 (stereo not shown) [Example 13, 2-Bromo-4-[(2-bromo-6-phenylphenanthridin-5(6H)-yl)sulfonyl]phenol] | < 35 | – | –
11 | 27 | 151 | CCC1c2cc(F)ccc2-c2ccccc2N1S(=O)(=O)c1ccc(O)cc1 (stereo not shown) [Example 40, 4-[(6-Ethyl-8-fluorophenanthridin-5(6H)-yl)sulfonyl]phenol] | < 35 | 99 | –
12 | > 10000 | 167 to 170 | CCC1c2ccc(C)cc2-c2ccccc2N1S(=O)(=O)c1ccc(O)cc1 (stereo not shown) [Example 43, 4-[(6-Ethyl-9-methylphenanthridin-5(6H)-yl)sulfonyl]phenol] | < 35 | – | –
13 | 96 | 188 | CC1c2cc(F)ccc2-c2ccccc2N1S(=O)(=O)c1ccc(O)cc1 (stereo not shown) [Example 32, 4-[(8-Fluoro-6-methylphenanthridin-5(6H)-yl)sulfonyl]phenol] | – | 96 | EC50 [2]: 302 nM; Emax [2]: 26%
14 | 707 | 196 | Cc1cc(S(=O)(=O)N2c3ccccc3-c3ccc(F)cc3C2C)ccc1O (stereo not shown) [Example 35, 4-[(8-Fluoro-6-methylphenanthridin-5(6H)-yl)sulfonyl]-2-methylphenol] | < 35 | 94 | –
15 | 357 | 237 to 239 | CC1c2cc(F)ccc2-c2cc(Br)ccc2N1S(=O)(=O)c1ccc(O)cc1 (stereo not shown) [Example 45, 4-[(2-Bromo-8-fluoro-6-methylphenanthridin-5(6H)-yl)sulfonyl]phenol] | < 35 | 92 | –
16 | 470 | 149 to 151 | CCCCC1c2ccccc2-c2ccccc2N1S(=O)(=O)c1ccc(O)cc1 (stereo not shown) [Example 7, 4-[(6-Butylphenanthridin-5(6H)-yl)sulfonyl]phenol] | < 35 | 7 | –
17 | 2280 | 187 to 189 | CC(C)(C)[C@H]1c2ccccc2-c2ccccc2N1S(=O)(=O)c1ccc(O)cc1 [Example 16, 4-{[(S)-6-tert-Butylphenanthridin-5(6H)-yl]sulfonyl}phenol] | – | 89 | EC50 [2]: 3160 nM; Emax [2]: 15%
18 | 163 | 115 to 118 | CC[C@@H](C)[C@H]1c2ccccc2-c2ccccc2N1S(=O)(=O)c1ccc(O)cc1 (relative stereo) [Example 22, 4-{[(S*)-6-[(R*)-1-methylpropyl]phenanthridin-5(6H)-yl]sulfonyl}phenol] | < 35 | 96 | –
19 | 85 | 220 to 221 | CCC1c2cc(F)ccc2-c2cc(Br)ccc2N1S(=O)(=O)c1ccc(O)cc1 (stereo not shown) [Example 44, 4-[(2-Bromo-6-ethyl-8-fluorophenanthridin-5(6H)-yl)sulfonyl]phenol] | < 35 | 94 | –
20 | – | – | C[C@H]1c2cc(F)ccc2-c2ccc(F)cc2N1S(=O)(=O)c1ccc(O)cc1 (single isomer, unassigned) [Example 100] | – | – | Emax ([1]; Homo sapiens, HAECT1, IL-1β): 196%; IC50 ([1]; Homo sapiens, HAECT1, IL-1β): 6.9 nM
21 | > 10000 | 165 to 170 | CC1c2cc(F)ccc2-c2ccccc2N1S(=O)(=O)c1ccc(O)c(O)c1 (stereo not shown) [Example 50, 4-[(8-Fluoro-6-methylphenanthridin-5(6H)-yl)sulfonyl]benzene-1,2-diol] | < 35 | – | –
22 | > 10000 | 213 to 215 | CC1c2ccccc2-c2ccccc2N1S(=O)(=O)c1ccc(O)c(C(F)(F)F)c1 (stereo not shown) [Example 58, 4-[(6-Methylphenanthridin-5(6H)-yl)sulfonyl]-2-(trifluoromethyl)phenol] | < 35 | – | –
23 | 433 | 186 to 188 | Cc1cc(S(=O)(=O)N2c3ccccc3-c3ccccc3C2C)ccc1O (stereo not shown) [Example 5, 2-Methyl-4-[(6-methylphenanthridin-5(6H)-yl)sulfonyl]phenol] | < 35 | 102 | –
24 | 1510 | 181 to 183 | C[C@@H]1c2ccccc2-c2ccccc2N1S(=O)(=O)c1ccc(O)cc1 (single isomer, unassigned) [Example 3] | < 35 | 97 | –
25 | 125 | 217 to 220 | O=S(=O)(c1ccc(O)cc1)N1c2ccccc2-c2ccccc2C1c1ccccc1 (stereo not shown) [Example 9, 4-[(6-Phenylphenanthridin-5(6H)-yl)sulfonyl]phenol] | – | 89 | EC50 [2]: 455 nM; Emax [2]: 26%
26 | – | – | C[C@@H]1c2cc(F)ccc2-c2ccc(F)cc2N1S(=O)(=O)c1ccc(O)cc1 (single isomer, unassigned) [Example 99] | – | – | Emax ([1]; Homo sapiens, HAECT1, IL-1β): 139%; IC50 ([1]; Homo sapiens, HAECT1, IL-1β): 341 nM
